According to patent publication US11180484B2, “Pyrazole derivatives as plasma kallikrein inhibitors” (KALVISTA PHARMACEUTICALS LIMITED, priority 2016, dated 2021):
pIC50, pKi: −log10 of the molar value.

What was measured:
Human plasma kallikrein [1] = biological target: T1, Human plasma kallikrein (Homo sapiens (Human), UniProt P03952); test: Determination of the IC50 for plasma kallikrein; type: biochemical; conditions: 25° C., substrate H-DPro-Phe-Arg-AFC; read-out: IC50 (human PKal)
Method: (§1) Human plasma kallikrein (Protogen) was incubated at 25° C. with the fluorogenic substrate H-DPro-Phe-Arg-AFC and various concentrations of the test compound. Residual enzyme activity (initial rate of reaction) was determined by measuring the change in […] at 410 nm and the IC50 value for the test compound was determined.

Human plasma kallikrein [2] = biological target: T1, Human plasma kallikrein; test: Determination of the Ki for plasma kallikrein (mixed-model inhibition); type: biochemical; conditions: for pKi: human plasma kallikrein, mixed-model inhibition equation; for Alpha: parameter of the mixed-model equation indicating mechanism of inhibition
Method: Plasma kallikrein inhibitory activity in vitro was determined using standard published methods (e.g. Johansen et al., Int. J. Tiss. Reac. 1986, 8, 185; Shori et al., Biochem. Pharmacol., 1992, 43, 1209; Sturzebecher et al., Biol. Chem. Hoppe-Seyler, 1992, 373, 1025). […]. Residual enzyme activity (initial rate of reaction) was determined by measuring the change in fluorescence at 410 nm. The Ki value for the test compound was determined using the mixed-model inhibition equation (based on Equation 3.2 in: RA Copeland, Evaluation of Enzyme Inhibitors in Drug Discovery, Wiley 2005) in GraphPad Prism. The mixed model equation includes competitive, uncompetitive and noncompetitive inhibition as special cases and the parameter of Alpha to indicate mechanism of inhibition.

Human KLK1 = Human KLK1 (Homo sapiens (Human), UniProt P06870); test: Determination of the IC50 for KLK1; type: biochemical; conditions: 25° C., substrate H-DVal-Leu-Arg-AFC
Human KLK1, sequence (P06870 25-262): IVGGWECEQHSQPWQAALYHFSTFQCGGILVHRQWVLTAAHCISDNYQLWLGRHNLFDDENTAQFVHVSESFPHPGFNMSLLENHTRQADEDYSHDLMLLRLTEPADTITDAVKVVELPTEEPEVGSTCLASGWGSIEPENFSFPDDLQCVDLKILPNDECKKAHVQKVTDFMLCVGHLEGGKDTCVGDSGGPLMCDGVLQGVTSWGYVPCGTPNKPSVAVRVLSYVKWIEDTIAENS
Method: as §1, with “KLK1 (Callbiochem)” for “plasma kallikrein (Protogen)”, “H-DVal-Leu-Arg-AFC” for “H-DPro-Phe-Arg-AFC”

Human FXIa = Human FXIa (Homo sapiens (Human), UniProt P03951); test: Determination of the % inhibition / IC50 for FXIa; type: biochemical; conditions: for pIC50: 25° C., substrate Z-Gly-Pro-Arg-AFC; for inhibition at 40 µM: 40 μM test compound, read-out: % Inhibition @ 40 μM (human FXIa)
Human FXIa, sequence (P03951 388-625): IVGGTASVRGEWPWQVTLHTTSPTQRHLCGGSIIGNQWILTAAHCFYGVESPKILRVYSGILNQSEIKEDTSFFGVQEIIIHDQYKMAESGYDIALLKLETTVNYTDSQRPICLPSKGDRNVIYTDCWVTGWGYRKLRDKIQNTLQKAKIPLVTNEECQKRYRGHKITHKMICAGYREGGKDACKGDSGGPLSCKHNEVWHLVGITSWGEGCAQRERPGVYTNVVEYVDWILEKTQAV
Human FXIa, sequence (P03951 19-387): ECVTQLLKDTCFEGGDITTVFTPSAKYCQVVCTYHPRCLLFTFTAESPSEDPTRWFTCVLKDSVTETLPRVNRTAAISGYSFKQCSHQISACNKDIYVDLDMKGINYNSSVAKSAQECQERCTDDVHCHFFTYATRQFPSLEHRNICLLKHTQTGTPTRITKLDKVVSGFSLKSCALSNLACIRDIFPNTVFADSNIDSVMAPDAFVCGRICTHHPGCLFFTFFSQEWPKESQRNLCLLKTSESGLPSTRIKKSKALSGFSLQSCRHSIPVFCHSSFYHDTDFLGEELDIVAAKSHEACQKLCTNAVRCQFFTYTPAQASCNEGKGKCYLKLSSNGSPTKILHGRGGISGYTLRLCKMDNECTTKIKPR
Method: FXIa inhibitory activity in vitro was determined using standard published methods (see e.g. Johansen et al., Int. J. Tiss. Reac. 1986, 8, 185; Shori et al., Biochem. Pharmacol., 1992, 43, 1209; Sturzebecher et al., Biol. Chem. Hoppe-Seyler, 1992, 373, 1025). […]

Human Factor XIIa = Human Factor XIIa (Homo sapiens (Human), UniProt P00748); test: Factor XIIa inhibitory activity in vitro; type: biochemical; conditions: 25° C., substrate H-DPro-Phe-Arg-AFC; read-out: IC50 (human FXIIa)
Human Factor XIIa, sequence (P00748 373-615): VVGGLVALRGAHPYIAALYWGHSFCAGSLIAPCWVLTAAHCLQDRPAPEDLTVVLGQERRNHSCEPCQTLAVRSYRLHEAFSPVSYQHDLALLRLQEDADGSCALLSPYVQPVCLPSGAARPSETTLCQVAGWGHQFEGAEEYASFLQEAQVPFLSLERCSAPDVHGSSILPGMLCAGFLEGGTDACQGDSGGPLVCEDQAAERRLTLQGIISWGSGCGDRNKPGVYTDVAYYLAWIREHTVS
Method: as §1, with “Factor XIIa (Enzyme Research Laboratories)” for “plasma kallikrein (Protogen)”

[3] = In vitro permeability, Caco-2 model for oral absorption; type: in vitro ADME; conditions: human, apical to basolateral, 50 μM test compound, 37° C.
Method: In vitro permeability was determined using the Caco-2 model for oral absorption. The methodology was adapted from standard published methods (Wang Z, Hop C. E., Leung K. H. and Pang J. (2000) J Mass Spectrom 35(1); 71-76). The Caco-2 monolayers were established in a Biocoat™ HTS fibrillar collagen 24 well multiwell insert system (1.0 μm, PET membrane, Corning 354803) in which 200,000 cells were seeded into each insert and maintained over 3 days before being utilised in the permeability assay. For the assay, 50 μM test compound is added to the apical side of the inserts and incubated for 1 hour at 37° C. on a shaking platform (120 rpm). Apical to basolateral transport was determined by measuring the test article in both compartments by LCMS following the 1 hour incubation. The integrity of the Caco-2 monolayers was confirmed by two methods, (i) comparison of pre- and post-experiment transepithelial electrical resistance (TEER) and, (ii) assessment of Lucifer Yellow flux.

[4] = Intrinsic clearance in human liver microsomes; type: in vitro ADME; conditions: human liver microsomes 0.5 mg/mL, 5 μM test compound, 37° C.; read-out: Human liver microsome (Clint μL/min/mg protein)
Method: (§2) Rat or human liver microsomes (0.5 mg/mL; Corning) were incubated with 5 μM test compound at 37° C. on a shaking platform (150 rpm). Samples were taken at 0, 6, 12, 18, 24 and 60 min and test compound concentrations were determined by LCMS against a calibration curve.

[5] = Intrinsic clearance in rat liver microsomes; type: in vitro ADME; conditions: rat liver microsomes 0.5 mg/mL, 5 μM test compound, 37° C.; read-out: rat liver microsome (Clint μL/min/mg protein)
Method: as §2

[6] = Plasma protein binding (PPB), rapid equilibrium dialysis, human plasma; type: in vitro ADME; conditions: 5 μM test compound, dialysis 5 hrs at 37° C.
Method: The fraction unbound in plasma was determined using ThermoScientific™ Pierce™ Rapid Equilibrium Dialysis Technology (Single-Use plate with inserts, 8K MWCO). […] Reference samples from the non-dialysed plasma were taken before the incubation to enable an assessment of recovery. Test compound concentrations were determined in plasma and buffer compartments by LCMS against a calibration curve. […] Results are presented as percent plasma protein bound (% PPB).

[7] = Plasma protein binding (PPB), rapid equilibrium dialysis, rat plasma; type: in vitro ADME; conditions: 5 μM test compound, dialysis 5 hrs at 37° C.
Method: The fraction unbound in plasma was determined using ThermoScientific™ Pierce™ Rapid Equilibrium Dialysis Technology (Single-Use plate with inserts, 8K MWCO). 5 μM test compound was spiked into human or rat plasma (300 μL) and dialysed against 146.5 mM phosphate buffer (500 μL) for 5 hrs at 37° C., shaking at 1200 rpm. Reference samples from the non-dialysed plasma were taken before the incubation to enable an assessment of recovery. Test compound concentrations were determined in plasma and buffer compartments by LCMS against a calibration curve. The fraction unbound in plasma was determined using standard methodology (Waters N J et al (2008) J Pharm Sci 97(10); 4586-95). Results are presented as percent plasma protein bound (% PPB).

[8] = Predicted plasma clearance (Clp), well-stirred model, human; type: in vitro ADME; conditions: percentage of hepatic blood flow
Method: (§3) The predicted plasma clearance (Clp) is calculated using the well-stirred model (Rowland M, Benet L Z, and Graham G G. Clearance concepts in pharmacokinetics. J Pharmacokinet Biopharm. (1973) 1:123-136.), one of several models that can be used to extrapolate the in vitro data. The model assumes instantaneous and complete mixing of drug within the liver and is a function of intrinsic clearance, hepatic blood flow and free fraction of drug in the blood. The predicted plasma clearance in mL/min/kg is presented as a percentage of hepatic blood flow (LBF).

[9] = Predicted plasma clearance (Clp), well-stirred model, rat; type: in vitro ADME; conditions: percentage of hepatic blood flow
Method: as §3

[10] = Pharmacokinetics following a single oral dose in male Sprague-Dawley rats; type: in vivo; conditions: rat, single po dose (nominal 10 mg/kg; actual dose per row in column Dose po), 10% DMSO/10% cremophor/80% SWFI, plasma
Method: Pharmacokinetic studies of the compounds in Table 13 were performed to assess the pharmacokinetics following a single oral dose in male Sprague-Dawley rats. Two rats were given a single po dose of 5 mL/kg of a nominal 2 mg/mL (10 mg/kg) composition of test compound in vehicle. Following dosing, blood samples were collected over a period of 24 hours. Sample times were 5, 15 and 30 minutes then 1, 2, 4, 6, 8 and 12 hours. Following collection, blood samples were centrifuged and the plasma fraction analysed for concentration of test compound by LCMS.

T1 sequence (P03952 391-638): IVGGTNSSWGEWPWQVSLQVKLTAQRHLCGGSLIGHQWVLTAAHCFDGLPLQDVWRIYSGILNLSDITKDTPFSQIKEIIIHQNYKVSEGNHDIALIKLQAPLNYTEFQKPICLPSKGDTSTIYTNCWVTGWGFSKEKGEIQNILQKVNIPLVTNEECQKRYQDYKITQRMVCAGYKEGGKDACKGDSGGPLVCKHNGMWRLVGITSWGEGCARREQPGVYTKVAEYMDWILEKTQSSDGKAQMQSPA
T1 sequence (P03952 20-390): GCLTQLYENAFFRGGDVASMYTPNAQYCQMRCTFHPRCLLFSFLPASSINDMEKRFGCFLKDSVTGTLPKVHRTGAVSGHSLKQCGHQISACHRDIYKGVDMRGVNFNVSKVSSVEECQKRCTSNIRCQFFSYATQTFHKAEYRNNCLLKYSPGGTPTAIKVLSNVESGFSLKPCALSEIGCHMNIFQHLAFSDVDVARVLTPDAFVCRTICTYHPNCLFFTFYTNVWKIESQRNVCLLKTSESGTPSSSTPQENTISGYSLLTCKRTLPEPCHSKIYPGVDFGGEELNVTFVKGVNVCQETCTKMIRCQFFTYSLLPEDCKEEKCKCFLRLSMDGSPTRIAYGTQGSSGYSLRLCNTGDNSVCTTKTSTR

| Structure (SMILES) | pIC50 (Human plasma kallikrein [1]) | pKi (Human plasma kallikrein [2]) | Alpha (Human plasma kallikrein [2]) | pIC50 (Human KLK1) | pIC50 (Human FXIa) | pIC50 (Human Factor XIIa) | Papp at 1 h, 50 μM [3] | microsomal CLint at 5 μM [4] | microsomal CLint at 5 μM [5] | fraction unbound at 5 h, 5 μM [6] | fraction unbound at 5 h, 5 μM [7] | Predicted in vivo human Clp (% LBF) [8] | Predicted in vivo rat Clp (% LBF) [9] | inhibition at 40 µM (Human FXIa) | Cmax [10] | Tmax [10] |
| --- | --- | --- | --- | --- | --- | --- | --- | --- | --- | --- | --- | --- | --- | --- | --- | --- |
| COCc1nn(Cc2cnc(N3CCCC3)nc2)cc1C(=O)NCc1cc(OC)ccc1-n1cnnn1 [Example 80, N-{[5-methoxy-2-(1,2,3,4-tetrazol-1-yl)phenyl]methyl}-3-(methoxymethyl)-1-{[2-(pyrrolidin-1-yl)pyrimidin-5-yl]methyl}pyrazole-4-carboxamide] | 7.97 | 8.62 | 14.8 | < 5.40 | 6.11 | < 5.40 | 23 ×10⁻⁶ cm/s | 14 µL/min/mg | 54 µL/min/mg | 0.08 | 0.04 | 4 % LBF | 6 % LBF | – | – | – |
| COCc1nn(Cc2ccc(N3CCCC3)nc2)cc1C(=O)NCc1c(-n2cnnn2)ccc(OC)c1F [Example 77, N-{[2-fluoro-3-methoxy-6-(1,2,3,4-tetrazol-1-yl)phenyl]methyl}-3-(methoxymethyl)-1-{[6-(pyrrolidin-1-yl)pyridin-3-yl]methyl}pyrazole-4-carboxamide] | 8.85 | 9.77 | 4.2 | < 4.40 | 6.63 | < 4.40 | 28 ×10⁻⁶ cm/s | 29 µL/min/mg | 82 µL/min/mg | 0.03 | < 0.01 | 3 % LBF | <2.0 % LBF | 100% | 845 ng/mL | 1.5 h |

The remaining lines, values ahead:

| pIC50 (Human plasma kallikrein [1]) | pKi (Human plasma kallikrein [2]) | Alpha (Human plasma kallikrein [2]) | pIC50 (Human KLK1) | pIC50 (Human FXIa) | pIC50 (Human Factor XIIa) | Papp at 1 h, 50 μM [3] | microsomal CLint at 5 μM [4] | microsomal CLint at 5 μM [5] | fraction unbound at 5 h, 5 μM [6] | fraction unbound at 5 h, 5 μM [7] | Predicted in vivo human Clp (% LBF) [8] | Predicted in vivo rat Clp (% LBF) [9] | inhibition at 40 µM (Human FXIa) | Cmax [10] | Tmax [10] | Structure (SMILES) |
| --- | --- | --- | --- | --- | --- | --- | --- | --- | --- | --- | --- | --- | --- | --- | --- | --- |
| 8.96 | 9.28 | 108 | < 4.40 | < 4.40 | < 4.40 | 12 ×10⁻⁶ cm/s | 25 µL/min/mg | 94 µL/min/mg | 0.16 | 0.13 | 14 % LBF | 26 % LBF | – | – | – | COCc1nn(Cc2ccc(Cn3ccccc3=O)cc2)cc1C(=O)NCc1c(F)cccc1-n1cnnn1 [Reference Example H, N-{[2-Fluoro-6-(1,2,3,4-tetrazol-1-yl)phenyl]methyl}-3-(methoxymethyl)-1-({4-[(2-oxopyridin-1-yl)methyl]phenyl}methyl)pyrazole-4-carboxamide, reference compound] |
| 9.05 | 9.52 | 1.6 | < 4.40 | 5.33 | < 4.40 | 25 ×10⁻⁶ cm/s | 90 µL/min/mg | 114 µL/min/mg | 0.09 | 0.03 | 35 % LBF | 12 % LBF | 90% | – | – | COCc1nn(Cc2ccc(Cn3cc(C)cn3)cc2)cc1C(=O)NCc1c(-n2cnnn2)ccc(OC)c1F [Example 60, N-{[2-fluoro-3-methoxy-6-(1,2,3,4-tetrazol-1-yl)phenyl]methyl}-3-(methoxymethyl)-1-({4-[(4-methylpyrazol-1-yl)methyl]phenyl}methyl)pyrazole-4-carboxamide] |
| 9.22 | – | – | < 5.40 | < 4.40 | < 5.40 | 6 ×10⁻⁶ cm/s | 35 µL/min/mg | 94 µL/min/mg | 0.08 | 0.09 | 19 % LBF | 33 % LBF | – | – | – | O=C(NCc1c(F)cccc1-n1cnnn1)c1cn(Cc2ccc(Cn3ccccc3=O)cc2)nc1C(F)(F)F [Example 64, N-{[2-fluoro-6-(1,2,3,4-tetrazol-1-yl)phenyl]methyl}-1-({4-[(2-oxopyridin-1-yl)methyl]phenyl}methyl)-3-(trifluoromethyl)pyrazole-4-carboxamide] |
| 8.77 | – | – | < 5.40 | < 4.40 | < 5.40 | 22 ×10⁻⁶ cm/s | 55 µL/min/mg | 132 µL/min/mg | 0.08 | 0.04 | 4 % LBF | 15 % LBF | – | – | – | COCc1nn(Cc2ccc(Cn3cc(C)cn3)cc2)cc1C(=O)NCc1cc(OC)ccc1-n1cnnn1 [Example 61, N-{[5-methoxy-2-(1,2,3,4-tetrazol-1-yl)phenyl]methyl}-3-(methoxymethyl)-1-({4-[(4-methylpyrazol-1-yl)methyl]phenyl}methyl)pyrazole-4-carboxamide] |
